What all share (test): Antibacterial activity of lactic acid cell culture products (plate culture, filter paper disk)
Common to all, as to format: cell-based

Experiment [1] deals with V. parahaemolyticus TUMSAT-D6 strain (AHPND strain). The settings on record: Vibrio parahaemolyticus on Marine agar; disk with 20 μL culture filtrate (ampicillin 100 μg/mL); 25° C., 24 hours; read-out: diameter of the growth-inhibitory zone. The method, then:
(§1) Examination was performed on whether the cell culture products of NITE BP-03199, NITE BP-03200, and NITE BP-03201 have antibacterial activity to Vibrio bacteria. The V. parahaemolyticus TUMSAT-D6 strain (AHPND strain), V. nigripulchritudo TUMSAT-OK1 strain, and V. pengeicida TUMSAT-OG1 strain were used as Vibrio bacteria.
(§2) With reference to FIG. 4, the experimental method will be described. With a bacteria spreader, 100 μL of a bacterial solution 11 of a Vibrio bacterium (approximately 10^8 cfu/mL) was smeared on agar medium 12. The agar medium used was Marine agar (Difco). A filter paper disk 15 was impregnated with 20 μL of a lactic acid bacterial culture filtrate 13, and placed on the agar medium with a Vibrio bacterium smeared thereon. The lactic acid bacterial culture filtrate (cell culture product) was a solution obtained through a process that any lactic acid bacterium of NITE BP-03199, NITE BP-03200, and NITE BP-03201 was cultured with MRS Broth at a temperature of 30° C. and the culture supernatant was filtered through a filter having a pore size of 0.22 μm. The turbidity of each lactic acid bacterial culture solution at a wavelength of 600 nm was approximately 10 OD. The agar medium with filter paper disk 15 placed thereon was subjected to culture at 25° C. for 24 hours, and the diameter (mm) of a growth-inhibitory zone 14 was measured. Each numerical value shown in Table 7 indicates the diameter (mm) of the growth-inhibitory zone. A filter paper disk was impregnated with medium for lactic acid bacteria (MRS Broth) as a negative control, and another one was impregnated with the antibiotic ampicillin (100 μg/mL) as a positive control.

Experiment [2] concerns V. pengeicida TUMSAT-OG1 strain. To be noted: Vibrio penaeicida on Marine agar; disk with 20 μL culture filtrate (ampicillin 100 μg/mL); 25° C., 24 hours; read-out: diameter of the growth-inhibitory zone. The method, then:
as §1, §2

In experiment [3] the test system is V. nigripulchritudo TUMSAT-OK1 strain. To be noted: Vibrio nigripulchritudo on Marine agar; disk with 20 μL culture filtrate (ampicillin 100 μg/mL); 25° C., 24 hours; read-out: diameter of the growth-inhibitory zone. The method, then:
as §1, §2

In the case of `CC1(C)S[C@@H]2[C@H](NC(=O)[C@H](N)c3ccccc3)C(=O)N2[C@H]1C(=O)O` [Ampicillin, ampicillin], the zone of inhibition at 100 µg/mL in experiment [1] was determined as 28 mm; in experiment [2], 37 mm; in experiment [3], 29 mm.

Source of the values: patent US20240335486A1, “COMPOSITION FOR REARING ORGANISM BELONGING TO ORDER DECAPODA AND COMPOSITION FOR PREVENTING OR TREATING INFECTION IN DECAPODS” (SUMITOMO CHEMICAL COMPANY, LIMITED, priority 2021, published 2024).
